Experiments:
[1] = target: T1, rat VR1 capsaicin receptor (Rattus norvegicus, UniProt O35433); assay: Capsaicin-stimulated flash luminescence in CHO cells expressing Apophotin and rat VR1; format: cell-based; conditions: 10 and 50 μM capsaicin; CHO cells with Apophotin and rat VR1 (FIG. 5)
T1 construct: expressed in transfected cells; host or cells: CHO
Method: The specific agonist, capsaicin, was used at a concentration of 10 and 50 μM.
3.3 CHO cell lines expressing both Apophotin and the rat VR1 capsaicin receptor—a calcium-permeable ion channel—were grown to 80-95% confluence in tissue culture flasks and harvested by trypsinization. Cells were dispensed at 10,000 cells/well in a 96-well white plates in growth medium and incubated overnight at 37° C. in a humidified incubator at 5% CO2. For luminescence experiments, the cells were loaded with coelenterazine 10 μM for 3 h at 37° C., 5% CO2. Calcium response was stimulated by addition of 10 and 50 μM capsaicin to each well. The kinetics of flash luminescence was followed using Labsystem Luminoskan Ascent, which injects reagents and records light emission from each single well.

[2] = system: endogenous ATP receptor expressed by CHO-K1 cell; assay: ATP-stimulated light emission in CHO-K1 cells transfected with Photin DNA; format: cell-based; conditions: two different concentrations of ATP (FIG. 3A)
Method: Cell transfection, harvesting, and Photin expression were performed as described in Example 1. Cells were treated with two different concentration of ATP. (B) The CHO-K1 cells transfected with Obelin DNA were used as positive control. Luminescence is expressed in RLU (relative light units).
3.1 Photin-expressing clones have been obtained by transfection of CHO-K1 cells (Materials and Methods). Two days after transfection the cells were trypsinized and diluted 10 or 100 times. Once the cells were grown up to well isolated colonies, the colonies were transferred to new plates and selected on the basis of their functional response (luminescent signal) to different concentration of ATP, which is known to stimulate the CHO endogenous receptor and to rise the cytoplasmic Ca^++ concentration. At the end of each experiment, cells were lysed by perfusion of a solution containing TritonX-100 and CaCl2. The active photoprotein was reconstituted incubating the cells with 10 μM coelenterazine diluted in PBS containing 2 mM calcium, in the dark at 37° C. in a 5% CO2 atmosphere for 3 hrs. For light emission measurement, cells were lysed in the presence of calcium and the emitted luminescence recorded. […] To detect changes in calcium concentrations, 10, 50 and 100 μM ATP were injected and the kinetics of calcium response determined. […]

T1 sequence (O35433 whole entry): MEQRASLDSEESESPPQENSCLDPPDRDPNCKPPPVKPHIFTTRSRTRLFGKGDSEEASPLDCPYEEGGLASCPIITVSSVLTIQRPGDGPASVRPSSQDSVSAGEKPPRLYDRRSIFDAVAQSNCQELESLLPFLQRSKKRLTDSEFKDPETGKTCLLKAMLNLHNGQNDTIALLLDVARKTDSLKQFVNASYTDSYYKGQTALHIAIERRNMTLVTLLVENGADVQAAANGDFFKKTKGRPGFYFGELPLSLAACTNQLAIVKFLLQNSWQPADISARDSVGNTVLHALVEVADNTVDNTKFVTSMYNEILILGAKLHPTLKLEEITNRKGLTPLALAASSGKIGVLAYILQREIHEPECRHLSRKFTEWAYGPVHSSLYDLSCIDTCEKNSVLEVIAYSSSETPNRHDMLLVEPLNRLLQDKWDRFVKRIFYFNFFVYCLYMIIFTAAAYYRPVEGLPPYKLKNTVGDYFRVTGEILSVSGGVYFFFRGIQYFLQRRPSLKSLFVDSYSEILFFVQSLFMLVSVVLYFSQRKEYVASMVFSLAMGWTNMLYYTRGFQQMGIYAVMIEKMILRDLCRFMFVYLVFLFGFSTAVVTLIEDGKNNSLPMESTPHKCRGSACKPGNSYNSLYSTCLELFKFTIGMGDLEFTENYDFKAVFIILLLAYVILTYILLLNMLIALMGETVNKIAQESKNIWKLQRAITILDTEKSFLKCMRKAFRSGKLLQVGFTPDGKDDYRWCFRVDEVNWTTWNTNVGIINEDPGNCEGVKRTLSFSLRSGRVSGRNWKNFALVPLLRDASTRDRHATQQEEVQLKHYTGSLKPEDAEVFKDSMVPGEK

| time of peak level of luminescence signal [1] | time within which the rapid and transient luminescence signal occurred [1] [s] | SMILES | light emission upon stimulation of the endogenous ATP receptor [2] |
| --- | --- | --- | --- |
| about 10 seconds | ≤ 30 | COc1cc(CNC(=O)CCCC/C=C/C(C)C)ccc1O [capsaicin] | – |
| – | – | Nc1ncnc2c1ncn2[C@@H]1O[C@H](COP(=O)(O)OP(=O)(O)OP(=O)(O)O)[C@@H](O)[C@H]1O [ATP] | dose dependent light emission |
